{"source": "patent US20110028639A1", "about": "“ROOM TEMPERATURE VULCANIZABLE POLYMERS” (HONEYWELL INTERNATIONAL, INC., priority 2007, published 2011)", "origin": "cited, not measured here", "tested_on": "males rats", "data": [{"smiles": "CC(C)=NO", "note": "[acetone oxime]", "values": [{"measurement": "tumors in rats", "result": "cause tumors"}]}]}
